Assay results published in US12370158B2, “Analogs of CYP-eicosanoids for use in treating or preventing a disorder associated with neovascularization and/or inflammation” (OMEICOS Therapeutics GmbH, priority 2016, dated 2025).

Experiments:
[1] = test system: double transgenic rats (dTGR), renal tissue; test: Renal inflammation (ED1 macrophage infiltration) in dTGR rat model of severe hypertension and end-organ damage; format: in vivo; settings: 1.33 mg/kg twice daily by gavage for 21 days, compared to vehicle treated dTGRs
Text: (§1) The aim of this study was to assess and compare the effect of continuous oral treatment of a metabolically robust analog of 17,18-EEQ (Comp-02) or vehicle (isotonic salt solution) on physiological parameters, clinical chemistry and end-organ damage in male double transgenic rats (dTGR). Non-treated Sprague-Dawley rats (SD) of same genetic background were used as control. Double transgenic rats, overexpressing the human renin and angiotensinogen genes, develop severe hypertension and are a model for Ang-II induced end-organ damage with cardiac hypertrophy and kidney failure. Moreover, the dTGR model features severe […], cardiac hypertrophy and nephrosclerosis with marked fibrosis and inflammation.
(§2) Before start of the experiment the animals were randomly assigned to either compound or vehicle treatment. […] Comp-02 was prepared in 61.6 ppm Na2CO3 and 0.9% NaCl ready to use solution for application, while dTGR animals were dosed twice daily with 0.9% NaCl ready to use solution for vehicle control. […] Samples were analysed using a Zeiss Axioplan-2 imaging microscope with the digital image-processing program AxioVision 4.8. […] Data were expressed as sum of 20 randomly chosen view fields, non-overlapping fields per section. […]

[2] = test system: TNF alpha release from the HL-1 cells; test: TNF alpha release from HL-1 cardiomyocytes; format: cell-based, mouse; settings: 24 h
Procedure: (§3) A cardiomyocyte cell line was used (mouse derived immortalized cardiomyocytes, HL-1 cells). Cells were either treated with vehicle (0.01% ethanol) or different concentrations of test compound (Comp-02: cE=10 nM, 100 nM or 1 μM). Simultaneously, the cells were challenged with 1 μg/mL lipopolysaccharide (LPS). After 24 h of incubation, the cells were processed to measure release of the pro-inflammatory cytokine TNF alpha.
as §3, with “In order to investigate the anti-inflammatory potential of compounds being part of the invention in vitro, a cardiomyocyte” for “A cardiomyocyte”, “measure viability (FIG. 2) and” for “measure”, “TNF alpha (FIG. 3).” for “TNF alpha.”

[3] = Ocular pharmacokinetics of Comp-02 after intravitreal injection in rabbit; format: in vivo, pigmented HY79b rabbits; settings: for AUC / Tmax / half-life / Cmax: male, pigmented HY79b; for AUC / Tmax / half-life: intravitreal; for AUC: read-out: AUC1-48 hours; for half-life: calculated from the Tmax value; for Cmax: topical or ocular, single vitreal injection of 50 μl (1 mg/mL) in both eyes
Procedure: (§4) Study design: To gain insight into the distribution behaviour of synthetic 17,18-EEQ-agonists, ocular pharmacokinetic studies were performed in pigmented HY79b rabbits. Briefly, 15 male rabbits per administration route were anesthetized at the time-points for sampling indicated in tables 2-4 by an intramuscular injection of a mixed solution of xylazine and ketamine. Blood collection was performed by cardiac puncture in K3EDTA tubes and centrifuged at 2000 g, 10 min at 4° C. Approximately 3 mL of plasma were sampled, put in plastic tubes, snap frozen in liquid nitrogen and stored at −80° C. until assay. Then animals were euthanized by intracardiac injection of overdosed pentobarbital. This method is one of the recommended methods for euthanasia by the European authorities (French decree No. 2013-118, dated Feb. 1, 2013 publishing the European directive 2010/63/UE. J.Offic. Rp. Fr. 2013; Text 24 out of 130). Immediately after euthanasia, samples from both eyes were quickly and carefully taken, put in plastic tubes, weighed, snap frozen in liquid nitrogen and stored at −80° C. until assay. Content of Comp-02 was determined in ocular samples and plasma following an established RRLCMS/MS method. The results are presented in Tables 5-7 and are expressed as mean values for the different pharmacokinetic parameters. Chromatogram integration was done using MassHunter software. Apparent Cmax and Tmax, T½, AUC1-48 h were calculated by Excel® software. Concentrations were expressed in ng/g or ng/mL of tissue/eye compartment.

HL-1 cells = test: Viability of LPS-challenged HL-1 cardiomyocytes; format: cell-based, mouse; settings: 10 nM, 100 nM or 1 μM, 1 μg/mL LPS, 24 h
Procedure: as §3, with “viability.” for “release of the pro-inflammatory cytokine TNF alpha.”
as §3, with “In order to investigate the anti-inflammatory potential of compounds being part of the invention in vitro, a cardiomyocyte” for “A cardiomyocyte”, “measure viability (FIG. 2) and” for “measure”, “TNF alpha (FIG. 3).” for “TNF alpha.”

[4] = Ocular pharmacokinetics of Comp-02 after topical administration (instillation) in rabbit; format: in vivo, pigmented HY79b rabbits; settings: checked by ophthalmoscopy
[5] = Ocular pharmacokinetics of Comp-02 after oral administration in rabbit; format: in vivo, pigmented HY79b rabbits; settings: for Comp-02 content (below lower limit of detection): oral; for Cmax / Tmax / AUC / half-life: male, pigmented HY79b, rabbit; for Cmax: single oral 2 mg/kg (0.2 mg/mL); for Tmax / AUC / half-life: single oral 2 mg/kg; for AUC: read-out: AUC1-48 hours; for half-life: calculated from the Tmax value
Procedure: as §4

[6] = Ocular pharmacokinetics of Comp-02 after intravitreal injection in rabbit; format: in vivo, pigmented HY79b rabbits; settings: ocular examination with a slit lamp
[7] = Ocular pharmacokinetics of Comp-02 after topical administration (instillation) in rabbit; format: in vivo, pigmented HY79b rabbits; settings: male, pigmented HY79b, topical or ocular, 50 μl of 1 mg/mL in both eyes; for Cmax: single instillation 50 μl (1 mg/mL) in both eyes; for Tmax / half-life / AUC: topical; for half-life: calculated from the Tmax value; for AUC: read-out: AUC1-48 hours
Procedure: as §4

[8] = test system: double transgenic rats (dTGR), cardiac tissue; test: Cardiac inflammation (ED1 macrophage infiltration) in dTGR rat model of severe hypertension and end-organ damage; format: in vivo; settings: 1.33 mg/kg twice daily by gavage for 21 days, compared to vehicle treated dTGRs
Text: as §1, §2

[9] = other: intravitreal injection, 50 μl of 1 mg/mL in both eyes, vitreous
[10] = other: intravitreal, 50 µg/eye, choroid
[11] = other: intravitreal, 50 µg/eye, plasma
[12] = other: intravitreal, 50 µg/eye, retina

With CNC(=O)C(=O)NCCCC/C=C\CCCCCCCOCC(=O)O [Comp-02, 2-((13-(2-(methylamino)-2-oxoacetamido)tridec-8(Z)-en-1-yl)oxy)acetic acid] the “Macrophage infiltration (ED1 positive cells) in renal tissue” value [1] was “significant reduction”, the “LPS-induced TNF alpha release” value ([2]; 10 nM, 100 nM or 1 μM, 1 μg/mL LPS) was “significantly and dose-dependently reduced” and the “Influence on TNF alpha production, compound alone” value ([2]; Comp-02 alone (no LPS)) was “did not have an influence”. The “Ocular exposure in the posterior eye, comparison of routes” value ([3]; intravitreal injection compared to oral and topical administration) was “highest ocular exposures”, the AUC ([3]; other: intravitreal injection, 50 μl of 1 mg/mL in both eyes, choroid) was 63300 ng·h/mL and the AUC ([3]; other: intravitreal injection, 50 μl of 1 mg/mL in both eyes, plasma) was 287 ng·h/mL. It also gave an AUC ([3]; other: intravitreal injection, 50 μl of 1 mg/mL in both eyes, retina) of 79900 ng·h/mL, a Tmax [3, 9] of 1 h and an AUC [3, 9] of 55400 ng·h/mL. It also gave a Tmax [3, 10] of 1 h, a half-life [3, 10] of 2.4 h and a Tmax [3, 11] of 2 h. It also gave a half-life [3, 11] of 4.2 h, a Tmax [3, 12] of 1 h and a half-life [3, 12] of 2.6 h. For the same compound, the half-life ([3]; other: intravitreal, 50 µg/eye, vitreous) was 4.6 h, the Cmax ([3]; 50 μl of 1 mg/mL in both eyes, choroid) was 15000 ng/g and the Cmax ([3]; 50 μl of 1 mg/mL in both eyes, plasma) was 19 ng/mL. For the same compound, the Cmax ([3]; 50 μl of 1 mg/mL in both eyes, retina) was 10100 ng/g, the Cmax ([3]; 50 μl of 1 mg/mL in both eyes, vitreous) was 6650 ng/mL and the “Effect on LPS-induced reduction in cell viability (cytotoxic effect)” value (HL-1 cells) was “dose-dependently reversed”. For the same compound, the “Macroscopic tolerability of the Comp-02 formulation” value [4] was “very well tolerated”, the “Comp-02 content (below lower limit of detection)” value ([5]; aqueous humor samples, except for one out of 15 animals) was less than 0.1 ng/10 μl injected and the Cmax ([5]; aqueous humor) was 8 ng/mL. For the same compound, the Tmax ([5]; aqueous humor) was 1 h, the AUC ([5]; aqueous humor) was 12 ng·h/mL and the Cmax ([5]; choroid) was 246 ng/g. For the same compound, the Tmax ([5]; choroid) was 1 h, the half-life ([5]; choroid) was 9 h and the AUC ([5]; choroid) was 1390 ng·h/mL. The Cmax ([5]; plasma) was 1210 ng/mL, the Tmax ([5]; plasma) was 1 h and the half-life ([5]; plasma) was 6 h. The AUC ([5]; plasma) was 6330 ng·h/mL, the Cmax ([5]; retina) was 15 ng/g and the Tmax ([5]; retina) was 4 h. For the same compound, the “Comp-02 content (below lower limit of detection)” value ([5]; retina samples, except for two out of 15 animals) was less than 0.1 ng/10 μl injected, the “Macroscopic tolerability of the Comp-02 formulation” value [6] was “very well tolerated” and the Cmax ([7]; aqueous humor) was 88 ng/mL. The Tmax ([7]; aqueous humor) was 1 h, the half-life ([7]; aqueous humor) was 1 h and the AUC ([7]; aqueous humor) was 324 ng·h/mL. It also gave a Cmax ([7]; choroid) of 79 ng/g, a Tmax ([7]; choroid) of 1 h and a half-life ([7]; choroid) of 0.7 h. It also gave a Cmax ([7]; plasma) of 31 ng/mL, a Tmax ([7]; plasma) of 0.5 h and a half-life ([7]; plasma) of 5.4 h. It also gave an AUC ([7]; plasma) of 262 ng·h/mL, a Cmax ([7]; retina) of 24 ng/g and a Tmax ([7]; retina) of 1 h. The “Macrophage infiltration (ED1 positive cells) in cardiac tissue” value [8] was “significant reduction”.
